Results published in patent US20120010235A1, “N-SUBSTITUTED PYRROLIDINES” (priority 2010, published 2012).
Counter-ions that a name gives are not always drawn.

test system: SJSA, an osteocarcinoma cell line; assay: antiproliferative activity assay (tetrazolium dye, MTT) in SJSA cells; details: cell-based MTT assay, inhibition of cell proliferation, read-out: TT IC50
Description: The pharmacological properties of the compounds of this invention may be confirmed by a number of pharmacological assays. The exemplified antiproliferative activity assay which follows has been carried out with the compounds according to the invention.
Cell proliferation was evaluated by the tetrazolium dye assay according to the procedure of Denizot and Lang (Denizot, F. and Lang, R. (1986) Rapid colorimetric assay for cell growth and survival. Modification to the terrazolium dye procedure giving improved sensitivity and reliability. J. Immunol. Methods 89, 271-277). The cell line used was SJSA, an osteocarcinoma cell line obtained from the American Type Cell Culture Collection (ATCC; Rockville, Md.). The cells were grown in PRMI with 10% FBS (Fetal Bovine Serum, Invitrogen).
Cells were plated at the appropriate seeding density to give logarithmic growth over the course of the assay in a 96-well tissue culture plate. Plates were incubated overnight at 37° C. in a humidified incubator with 5% CO2. The next day, test compounds were serially diluted 1:3 in the appropriate medium containing 3% DMSO. One-tenth final volume of each dilution was added […] to the plates containing cells. The same volume of 3% DMSO in medium was added to a row of control wells. Thus, the final concentration of DMSO in all wells was 0.3%. The plates were returned to the incubator, and at set time points (determined by their growth curves) plates were analyzed as follows: 3-(4,5-dimethylthiazole-2-yl)-2,5-diphenyl-2H-tetrazolium bromide (thiazolyl blue; MTT; Sigma) was added to each well to yield a final concentration of 1 mg/ml. Plates were returned to the incubator for 2.5 hours. The MTT-containing medium was removed and the resulting formazan metabolite was solubilized in 100% ethanol with shaking for 15 minutes at room temperature. Absorbances were read in a microtiter plate reader at a wavelength of 570 nm with a 650 nm reference. Percent inhibition (% INH) was calculated by subtracting the blank from all wells, then subtracting the ratio of the average absorbance of each triplicate (SAVE) by the average of the controls (CAVE) from 1.00. The final product was then multiplied by 100 (% INH=(1.00−SAVE/CAVE)×100). The concentration at which 50% inhibition (IC50) of cell proliferation is obtained was determined from the linear regression of a plot of the logarithm of the concentration versus percent inhibition.

Compared with `CCN1[C@@H](CC(C)(C)C)[C@](C#N)(c2ccc(Cl)cc2F)[C@@H](c2cccc(Cl)c2F)[C@@H]1C(=O)Nc1ccc(C(=O)O)cc1` (racemic) [Example 33, 4-{[(2R,3S,4R,5S)-3-(3-chloro-2-fluoro-phenyl)-4-(4-chloro-2-fluoro-phenyl)-4-cyano-5-(2,2-dimethyl-propyl)-1-ethyl-pyrrolidine-2-carbonyl]-amino}benzoic acid], `CN1[C@@H](CC(C)(C)C)[C@](C#N)(c2ccc(Cl)cc2F)[C@@H](c2cccc(Cl)c2F)[C@@H]1C(=O)Nc1ccc(C(=O)O)cc1` [Example 25, 4-{[(2R,3S,4R,5S)-3-(3-chloro-2-fluoro-phenyl)-4-(4-chloro-2-fluoro-phenyl)-4-cyano-5-(2,2-dimethyl-propyl)-1-methyl-pyrrolidine-2-carbonyl]-amino}-benzoic acid] is 3.4-fold lower in IC50: 1310 nM for the first, 390 nM for the second. The second is the more potent here.

Going from `CC(C)(C)C[C@@H]1N(CC2CC2)[C@@H](C(=O)Nc2ccc(C(=O)O)cc2)[C@H](c2cccc(Cl)c2F)[C@@]1(C#N)c1ccc(Cl)cc1F` (racemic) [Example 34, rac-4-{[(2R,3S,4R,5S)-3-(3-chloro-2-fluoro-phenyl)-4-(4-chloro-2-fluoro-phenyl)-4-cyano-1-cyclopropylmethyl-5-(2,2-dimethyl-propyl)-pyrrolidine-2-carbonyl]-amino}-benzoic acid] to `CC(C)(C)C[C@@H]1N(CCC2CCCCC2)[C@@H](C(=O)Nc2ccc(C(=O)O)cc2)[C@H](c2cccc(Cl)c2F)[C@@]1(C#N)c1ccc(Cl)cc1F` (racemic) [Example 37, rac-4-{[(2R,3S,4R,5S)-3-(3-chloro-2-fluoro-phenyl)-4-(4-chloro-2-fluoro-phenyl)-4-cyano-1-(2-cyclohexyl-ethyl)-5-(2,2-dimethyl-propyl)-pyrrolidine-2-carbonyl]-amino}-benzoic acid], the IC50 falls from 300 nM to 110 nM (2.7-fold). The second is the more potent here.

Going from `COc1cc(C(=O)O)ccc1NC(=O)[C@H]1[C@H](c2cccc(Cl)c2F)[C@@](C#N)(c2ccc(Cl)cc2F)[C@H](CC(C)(C)C)N1C` (racemic) [Example 39, rac-4-{[(2R,3S,4R,5S)-3-(3-chloro-2-fluoro-phenyl)-4-(4-chloro-2-fluoro-phenyl)-4-cyano-5-(2,2-dimethyl-propyl)-1-methyl-pyrrolidine-2-carbonyl]-amino}-3-methoxy-benzoic acid] to `COc1cc(C(N)=O)ccc1NC(=O)[C@H]1[C@H](c2cccc(Cl)c2F)[C@@](C#N)(c2ccc(Cl)cc2F)[C@H](CC(C)(C)C)N1C` (racemic) [Example 50, rac-(2R,3S,4R,5S)-3-(3-chloro-2-fluoro-phenyl)-4-(4-chloro-2-fluoro-phenyl)-4-cyano-5-(2,2-dimethyl-propyl)-1-methyl-pyrrolidine-2-carboxylic acid (4-carbamoyl-2-methoxy-phenyl)-amide], the IC50 rises from 40 nM to 370 nM (9.2-fold).

First: COc1cc(C(=O)O)ccc1NC(=O)[C@H]1[C@H](c2cccc(Cl)c2F)[C@@](C#N)(c2ccc(Cl)cc2F)[C@H](CC(C)(C)C)N1CC1CC1 (racemic) [Example 40, rac-4-{[(2R,3S,4R,5S)-3-(3-chloro-2-fluoro-phenyl)-4-(4-chloro-2-fluoro-phenyl)-4-cyano-1-cyclopropylmethyl-5-(2,2-dimethyl-propyl)-pyrrolidine-2-carbonyl]-amino}-3-methoxy-benzoic acid]
Second: CCN1[C@@H](CC(C)(C)C)[C@](C#N)(c2ccc(Cl)cc2F)[C@@H](c2cccc(Cl)c2F)[C@@H]1C(=O)Nc1ccc(C(=O)O)cc1OC (racemic) [Example 44, rac-4-{[(2R,3S,4R,5S)-3-(3-chloro-2-fluoro-phenyl)-4-(4-chloro-2-fluoro-phenyl)-4-cyano-5-(2,2-dimethyl-propyl)-1-ethyl-pyrrolidine-2-carbonyl]-amino}-3-methoxy-benzoic acid]
The IC50 of the first is 1.7-fold lower: 130 nM for the first, 220 nM for the second. The first is the more potent here.

`CCN1[C@@H](CC(C)(C)C)[C@](C#N)(c2ccc(Cl)cc2F)[C@@H](c2cccc(Cl)c2F)[C@@H]1C(=O)Nc1ccc(C(=O)O)c(OC)c1` (racemic) [Example 41, 4-{[(2R,3S,4R,5S)-3-(3-chloro-2-fluoro-phenyl)-4-(4-chloro-2-fluoro-phenyl)-4-cyano-5-(2,2-dimethyl-propyl)-1-ethyl-pyrrolidine-2-carbonyl]-amino}-2-methoxy-benzoic acid] and `CCCN1[C@@H](CC(C)(C)C)[C@](C#N)(c2ccc(Cl)cc2F)[C@@H](c2cccc(Cl)c2F)[C@@H]1C(=O)Nc1ccc(C(=O)O)c(OC)c1` (racemic) [Example 49, 4-{[(2R,3S,4R,5S)-3-(3-chloro-2-fluoro-phenyl)-4-(4-chloro-2-fluoro-phenyl)-4-cyano-5-(2,2-dimethyl-propyl)-1-propyl-pyrrolidine-2-carbonyl]-amino}-2-methoxy-benzoic acid] are within 1.5-fold of each other in IC50: 1230 nM for the first, 1490 nM for the second.

Compared with `COc1cc(NC(=O)[C@H]2[C@H](c3cccc(Cl)c3F)[C@@](C#N)(c3ccc(Cl)cc3F)[C@H](CC(C)(C)C)N2C)ccc1C(=O)O` (racemic) [Example 42, 4-{[(2R,3S,4R,5S)-3-(3-chloro-2-fluoro-phenyl)-4-(4-chloro-2-fluoro-phenyl)-4-cyano-5-(2,2-dimethyl-propyl)-1-methyl-pyrrolidine-2-carbonyl]-amino}-2-methoxy-benzoic acid], `CN1[C@@H](CC(C)(C)C)[C@](C#N)(c2ccc(Cl)cc2F)[C@@H](c2cccc(Cl)c2F)[C@@H]1C(=O)Nc1ccc(C(=O)O)c(F)c1` [Example 26, 4-{[(2R,3S,4R,5S)-3-(3-chloro-2-fluoro-phenyl)-4-(4-chloro-2-fluoro-phenyl)-4-cyano-5-(2,2-dimethyl-propyl)-1-methyl-pyrrolidine-2-carbonyl]-amino}-2-fluoro-benzoic acid trifluoroacetate salt] is 4.2-fold lower in IC50: 1360 nM for the first, 320 nM for the second. The second is the more potent here.

First: CCCCN1[C@@H](CC(C)(C)C)[C@](C#N)(c2ccc(Cl)cc2F)[C@@H](c2cccc(Cl)c2F)[C@@H]1C(=O)Nc1ccc(C(=O)O)c(OC)c1 (racemic) [Example 43, 4-{[(2R,3S,4R,5S)-1-butyl-3-(3-chloro-2-fluoro-phenyl)-4-(4-chloro-2-fluoro-phenyl)-4-cyano-5-(2,2-dimethyl-propyl)-pyrrolidine-2-carbonyl]-amino}-2-methoxy-benzoic acid]
Second: C=CCCCN1[C@@H](CC(C)(C)C)[C@](C#N)(c2ccc(Cl)cc2F)[C@@H](c2cccc(Cl)c2F)[C@@H]1C(=O)Nc1ccc(C(=O)O)c(OC)c1 (racemic) [Example 47, 4-{[(2R,3S,4R,5S)-3-(3-chloro-2-fluoro-phenyl)-4-(4-chloro-2-fluoro-phenyl)-4-cyano-5-(2,2-dimethyl-propyl)-1-pent-4-enyl-pyrrolidine-2-carbonyl]-amino}-2-methoxy-benzoic acid]
The IC50 of the first is 1.8-fold higher: 1140 nM for the first, 620 nM for the second.

`COc1cc(NC(=O)[C@H]2[C@H](c3cccc(Cl)c3F)[C@@](C#N)(c3ccc(Cl)cc3F)[C@H](CC(C)(C)C)N2CCC(C)C)ccc1C(=O)O` (racemic) [Example 45, 4-{[(2R,3S,4R,5S)-3-(3-chloro-2-fluoro-phenyl)-4-(4-chloro-2-fluoro-phenyl)-4-cyano-5-(2,2-dimethyl-propyl)-1-(3-methyl-butyl)-pyrrolidine-2-carbonyl]-amino}-2-methoxy-benzoic acid] and `COc1cc(NC(=O)[C@H]2[C@H](c3cccc(Cl)c3F)[C@@](C#N)(c3ccc(Cl)cc3F)[C@H](CC(C)(C)C)N2CCC2CCCCC2)ccc1C(=O)O` (racemic) [Example 48, 4-{[(2R,3S,4R,5S)-3-(3-chloro-2-fluoro-phenyl)-4-(4-chloro-2-fluoro-phenyl)-4-cyano-1-(2-cyclohexyl-ethyl)-5-(2,2-dimethyl-propyl)-pyrrolidine-2-carbonyl]-amino}-2-methoxy-benzoic acid trifluoroacetate salt] are within 1.5-fold of each other in IC50: 420 nM for the first, 430 nM for the second.

Compared with `CNC(=O)c1ccc(NC(=O)[C@H]2[C@H](c3cccc(Cl)c3F)[C@@](C#N)(c3ccc(Cl)cc3F)[C@H](CC(C)(C)C)N2C)c(OC)c1` (racemic) [Example 51, rac-(2R,3S,4R,5S)-3-(3-chloro-2-fluoro-phenyl)-4-(4-chloro-2-fluoro-phenyl)-4-cyano-5-(2,2-dimethyl-propyl)-1-methyl-pyrrolidine-2-carboxylic acid (2-methoxy-4-methylcarbamoyl-phenyl)-amide], `COc1cc(C(=O)O)ccc1NC(=O)[C@H]1[C@H](c2cccc(Cl)c2F)[C@@](C#N)(c2ccc(Cl)cc2F)[C@H](CC(C)(C)C)N1CCCCCO` (racemic) [Example 56, rac-4-{[(2R,3S,4R,5S)-3-(3-chloro-2-fluoro-phenyl)-4-(4-chloro-2-fluoro-phenyl)-4-cyano-5-(2,2-dimethyl-propyl)-1-(5-hydroxy-pentyl)-pyrrolidine-2-carbonyl]-amino}-3-methoxy-benzoic acid] is 15-fold lower in IC50: 460 nM for the first, 30 nM for the second. The second is the more potent here.
